Test results reported in the supplement of paper PMC6045584.

Key:
Assay in all cases: area under dose-response curve of surviving fraction (unscaled, Aref=0) (surviving fraction x log10(nM)); higher = more resistant
Conditions in all cases: exposure time: 5 days; dose range 0.5-1000 nM
MK-1775 = compound: C=CCn1c(=O)c2cnc(Nc3ccc(N4CCN(C)CC4)cc3)nc2n1-c1cccc(C(C)(C)O)n1 [MK-1775]
Summary of the method: (§1)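 Surviving fractions were fitted by 3-parameter logistic regression in the drc R package to give dose-response survival curves. They came from tumour cell lines treated for five days with eight inhibitor concentrations from 0.5 to 1000 nM and read by CellTiter-Glo luminescence against DMSO-only wells. The area under the curve is the unscaled activity area. It was calculated over log10 dose with Aref = 0.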

AFIMOXIFENE = compound: CC/C(=C(\c1ccc(O)cc1)c1ccc(OCCN(C)C)cc1)c1ccccc1 [AFIMOXIFENE]
Summary of the method: as §1

[1] = compound: CCc1cc(Nc2nccc(-c3c(-c4ccc(OC)c(C(=O)Nc5c(F)cccc5F)c4)nc4ccccn34)n2)c(OC)cc1N1CCC(N2CCN(S(C)(=O)=O)CC2)CC1
Summary of the method: as §1

CABOZANTINIB = compound: COc1cc2nccc(Oc3ccc(NC(=O)C4(C(=O)Nc5ccc(F)cc5)CC4)cc3)c2cc1OC [CABOZANTINIB]
Summary of the method: as §1

LENVATINIB = compound: COc1cc2nccc(Oc3ccc(NC(=O)NC4CC4)c(Cl)c3)c2cc1C(N)=O [LENVATINIB]
Summary of the method: as §1

[2] = compound: COc1ccc(-c2cc3c(C)nc(N)nc3n([C@H]3CC[C@H](OCCO)CC3)c2=O)cn1
Summary of the method: as §1

[3] = compound: C[C@@H]1CN(CC(=O)Nc2ccc3c(c2)Cc2cccc(-c4cc(=O)cc(N5CCOCC5)o4)c2S3)C[C@H](C)O1
Summary of the method: as §1

[4] = compound: C[C@H](CN(C)C)Oc1nc(Nc2cc3cccc(Cl)c3cn2)cnc1C#N
Summary of the method: as §1

BLEOMYCIN = compound: Cc1c(N)nc([C@H](CC(N)=O)NC[C@H](N)C(N)=O)nc1C(=O)N[C@H](C(=O)N[C@H](C)[C@@H](O)[C@H](C)C(=O)N[C@H](C(=O)NCCc1nc(-c2nc(C(=O)NCCC[S+](C)C)cs2)cs1)[C@@H](C)O)[C@@H](OC1OC(CO)C(O)C(O)C1OC1OC(CO)C(O)C(OC(N)=O)C1O)c1cnc[nH]1 [BLEOMYCIN]
Summary of the method: as §1

IMATINIB = compound: Cc1ccc(NC(=O)c2ccc(CN3CCN(C)CC3)cc2)cc1Nc1nccc(-c2cccnc2)n1 [IMATINIB]
Summary of the method: as §1

NILOTINIB = compound: Cc1cn(-c2cc(NC(=O)c3ccc(C)c(Nc4nccc(-c5cccnc5)n4)c3)cc(C(F)(F)F)c2)cn1 [NILOTINIB]
Summary of the method: as §1

BEZ-235 = compound: Cn1c(=O)n(-c2ccc(C(C)(C)C#N)cc2)c2c3cc(-c4cnc5ccccc5c4)ccc3ncc21 [BEZ-235]
Summary of the method: as §1

BMN-673 = compound: Cn1ncnc1[C@H]1c2n[nH]c(=O)c3cc(F)cc(c23)N[C@@H]1c1ccc(F)cc1 [BMN-673]
Summary of the method: as §1

VORINOSTAT = compound: O=C(CCCCCCC(=O)Nc1ccccc1)NO [VORINOSTAT]
Summary of the method: as §1

| Test System | area under dose-response curve (MK-1775) | area under dose-response curve (AFIMOXIFENE) | area under dose-response curve [1] | area under dose-response curve (CABOZANTINIB) | area under dose-response curve (LENVATINIB) | area under dose-response curve [2] | area under dose-response curve [3] | area under dose-response curve [4] | area under dose-response curve (BLEOMYCIN) | area under dose-response curve (IMATINIB) | area under dose-response curve (NILOTINIB) | area under dose-response curve (BEZ-235) | area under dose-response curve (BMN-673) | area under dose-response curve (VORINOSTAT) |
| --- | --- | --- | --- | --- | --- | --- | --- | --- | --- | --- | --- | --- | --- | --- |
| ASKA SYNOVIAL | 2.32 | 3.82 | 3.91 | 3.68 | 3.69 | 2 | 3.87 | 2.79 | 2.57 | 3.79 | 3.26 | 2.61 | 1.83 | 3.14 |
| CAL51 BREAST | 2.31 | 3.36 | 3.35 | 3.28 | 3.18 | 2.28 | 3.27 | 2.73 | 2.39 | 3.53 | 3.22 | 1.99 | 1.22 | 3.06 |
| CAL120 BREAST | 2.62 | 3.29 | 3.17 | 3.04 | 3.14 | 2.16 | 3.33 | 3.04 | 2.66 | 3.08 | 3.5 | 2.06 | 2.16 | 2.69 |
| CASKI CERVIX | 2 | 3.25 | 3.15 | 3.03 | 3.28 | 1.97 | 2.98 | 2.76 | 1.94 | 3.28 | 2.97 | 1.99 | 2.72 | 2.94 |
| CHLA90 AUTONOMIC GANGLIA | 2.46 | 3.42 | 3.16 | 2.95 | 3.23 | 2.37 | 3.37 | 2.86 | 2.89 | 3.45 | 3.5 | 2.25 | 2.97 | 3.28 |
| COLO320DM LARGE INTESTINE | 2.44 | 3.71 | 3.7 | 3.68 | 3.67 | 2.16 | 3.46 | 2.74 | 3.13 | 3.72 |  | 2.61 | 2.75 | 3.04 |
| H23 LUNG | 2.55 | 3.5 |  | 3.11 | 3.58 | 1.86 | 3.59 | 3.29 | 1.99 | 3.56 | 3.78 | 2.16 | 2.65 | 3.81 |
| HCC78 LUNG | 2.58 | 3.19 | 2.74 | 1.8 | 3.39 | 1.41 | 3.9 | 2.74 | 1.97 | 3.61 |  | 2.2 | 2.26 | 2.95 |
| HCT15 LARGE INTESTINE | 3.01 | 3.52 | 3.39 | 3.2 | 3.67 | 2.38 | 3.44 | 3.27 | 2.34 | 3.74 | 3.52 | 2.4 | 2.22 | 3.26 |
| HELA CERVIX | 2.7 | 3.54 | 3.49 | 3.33 | 3.67 | 2.88 | 3.72 | 3.28 | 3.15 | 3.58 | 3.53 | 3.17 | 3.22 | 3.3 |
| HOS BONE | 2.77 | 3.46 | 3.27 | 3.24 | 3.38 | 2.46 | 3.29 | 3.05 | 3.03 | 3.43 | 3.43 | 2.52 | 3 | 3.28 |
| HSSYII SYNOVIAL | 2.05 | 3.31 | 3.08 | 2.98 | 2.64 | 1.93 | 3 | 2.56 | 2.09 | 3.24 | 3.09 | 2.12 | 1.15 | 2.82 |
| HT1080 SOFT TISSUE | 2.2 | 3.48 | 3.37 | 3.29 | 3.31 | 2.54 | 3.27 | 3.08 | 2.57 | 3.5 | 3.28 | 2.35 | 1.71 | 3.01 |
| HU09 BONE | 2.34 | 3.44 |  | 2.66 | 2.42 | 1.71 | 3.39 | 2.89 | 2.58 | 2.91 | 2.76 | 2.26 | 2.02 | 3.08 |
| HUO3N1 BONE | 2.77 | 3.5 | 3.26 | 3 | 3.05 | 2.24 | 3.28 | 3.12 | 2.94 | 3.24 | 3.34 | 2.58 | 2.59 | 3.25 |
| JIMT1 BREAST | 2.04 | 3.34 | 3.34 | 3.5 | 3.41 | 2.47 | 3.11 | 2.3 | 2.8 | 3.41 | 3.15 | 2.38 | 2.39 | 3.11 |
| JURKAT HAEMATOPOIETIC AND LYMPHOID TISSUE | 2.46 | 3.27 | 3.28 | 3.38 | 3.38 | 2.42 | 3.48 | 2.99 | 2.64 | 3.38 | 3.46 | 2.43 | 2.15 | 3.06 |
| LM7 BONE | 2.34 | 3.53 | 3.23 | 3.43 | 3.27 | 2.32 | 3.09 | 3.17 | 2.46 | 3.59 | 3.1 | 2.77 | 1.78 | 3.26 |

| Test System | area under dose-response curve (MK-1775) | area under dose-response curve (AFIMOXIFENE) | area under dose-response curve [1] | area under dose-response curve (CABOZANTINIB) | area under dose-response curve (LENVATINIB) | area under dose-response curve [2] | area under dose-response curve [3] | area under dose-response curve [4] | area under dose-response curve (BLEOMYCIN) | area under dose-response curve (IMATINIB) | area under dose-response curve (NILOTINIB) | area under dose-response curve (BEZ-235) | area under dose-response curve (BMN-673) | area under dose-response curve (VORINOSTAT) |
| --- | --- | --- | --- | --- | --- | --- | --- | --- | --- | --- | --- | --- | --- | --- |
| LNCAP PROSTATE | 2.42 | 3.37 | 2.98 | 3.11 | 3.21 | 1.49 | 4.03 | 2.72 |  | 3.3 | 3.62 | 1.95 | 1.43 | 2.63 |
| MCF7 BREAST | 2.74 | 2.96 | 2.85 | 2.91 | 3.12 | 1.93 | 3.09 | 2.75 | 2.65 | 3.28 | 3.12 | 2.35 | 2.58 | 2.74 |
| MDAMB134 BREAST |  | 3.63 |  | 3.19 | 3.62 | 2.33 | 2.76 | 2.31 | 2.52 | 3.48 | 2.75 | 2.79 | 3.21 | 2.92 |
| MDAMB231 BREAST | 2.54 | 3.31 | 3.23 | 3.22 | 3.24 | 2.27 | 3.03 | 3.05 | 2.82 | 3.24 | 2.86 | 2.28 | 2.49 | 3.11 |
| MDAMB361 BREAST | 2.29 | 2.82 | 3.05 | 2.85 | 2.97 | 2.3 | 2.33 | 2.21 | 2.67 | 2.84 | 2.19 | 2.44 | 2.66 | 2.51 |
| MDAMB436 BREAST | 2.4 | 3.33 | 3.2 | 3.27 | 3.2 | 2.03 | 2.84 | 2.74 | 2.47 | 3.32 | 2.98 | 2.23 | 1.5 | 2.84 |
| MHM BONE | 3.12 | 3.46 | 3.29 | 3.23 | 3.4 | 2.79 | 3.5 | 3.43 | 3.06 | 3.51 | 3.6 | 2.85 | 3.2 | 3.28 |
| NY BONE | 2.18 | 3.43 |  | 3.07 | 3.21 | 2.35 | 3.49 | 2.58 | 2.43 |  | 3.51 | 2.76 | 2.86 | 3.06 |
| OS25HAL BONE | 2.36 | 3.51 | 3.27 | 3.05 | 3.19 | 2.12 | 3.38 | 3.06 | 2.85 | 3.47 | 3.17 | 2.66 | 2.71 | 3.21 |
| OSHN BONE | 2.85 | 3.65 | 3.42 | 3.22 | 3.63 | 2.99 | 3.42 | 3.08 | 2.72 | 3.71 | 3.28 | 3.19 | 2.4 | 3.47 |
| PCI30 HEADNECK | 2.58 | 3.49 | 3.27 | 3.08 | 3.61 | 2.34 | 3.24 | 2.74 | 2.41 | 3.49 |  | 2.54 | 2.82 | 3.21 |
| SCC47 HEADNECK | 2.55 | 4.16 | 3.42 | 3.26 | 3.62 | 2.79 | 3.53 | 3.17 | 2.59 | 3.94 | 3.44 | 2.85 |  | 3.47 |
| SIHA CERVIX | 2.93 | 3.74 | 3.53 | 3.04 | 3.63 | 2.34 | 3.5 | 3.45 |  | 3.68 | 3.47 | 2.36 | 2.87 | 3.58 |
| SKBR3 BREAST | 2.64 | 3.71 |  | 3.38 | 3.48 | 1.77 | 3.21 | 3.03 | 2.72 | 3.66 | 2.88 | 2.41 | 2.55 | 3 |
| SUM159 BREAST | 3.08 | 3.67 |  | 3.29 | 3.64 | 2.51 | 3.65 | 3.44 | 3.01 | 3.7 | 3.57 | 2.52 | 3.52 | 3.01 |
| SYO1 SYNOVIAL | 2.27 | 3.24 | 3.07 | 2.68 | 2.56 | 1.95 | 3.18 | 2.54 | 1.65 | 3.02 | 2.99 | 2.23 | 0.997 | 3.02 |
| T47D BREAST | 2.97 | 3.17 | 3.46 | 3.4 | 3.63 | 2.22 | 3.37 | 3.29 | 2.92 | 3.66 | 3.49 | 2.71 | 2.5 | 3.15 |
| U2OS BONE | 2.46 | 3.56 | 3.38 | 3.26 | 3.24 | 2.54 | 3.54 | 2.9 | 3.02 | 3.59 | 3.59 | 2.68 | 2.8 | 3.23 |
